According to patent US9040481B2, “Methods for treating steatotic disease” (The General Hospital Corporation, priority 2010, dated 2015):
Where no end group is shown, it is not given here. FAM = 5-carboxyfluorescein (5-FAM), fluorescent label attached at the amino terminus

Tests used:
[1] = system: hepatocytes isolated from ob/ob mice; assay type: cell-based, mouse; conditions: for specificity of intracellular transport: distribution versus pattern of mitotracker: Ob/Ob hepatocytes, 18 hours, 1 microM FAM peptide, 1 microM Mitotracker, 25 mM glucose
Protocol: GLP-1(28-36)amide (FIAWLVKGRamide (SEQ ID NO:1) and the GLP-1(28-37) Arg-34 glycine extended (FIAWLVRGRG (SEQ ID NO:4)) peptides were prepared by solid phase synthesis and purified by sequential HPLC to >98% single component homogeneity. Verification of the peptides was done by both amino acid composition analysis and by mass spectroscopy. Fluorescent-labeled GLP-1(28-36)amide was prepared with the green fluorescence compound, 5-carboxyfluorescein (5-FAM, fluorescein amidite) and added to hepatocytes isolated from the liver of an ob/ob mouse along with Mitotracker, a specific red fluorochrome mitochondrial marker from Molecular Probes (AnaSpec, Fremont Calif.). The mitotracker compound used requires oxidation to develop fluorescence emission and fluoresces only if cells are viable and actively respiring. The oxidized red fluorochrome stains mitochondria of live and poorly respiring cells (RedCMXRos #7512) and the reduced red fluorochrome stains only actively respiring cells (Red CM-H2XRos #7513).
Mitochondrial localization was evaluated as follows, Hepatocytes were isolated from ob/ob mice and diet-induced obese (DIO) mice and plated overnight on 4 well glass slides (NUNC, Inc., IL) in maintenance medium (12), Next day cells were treated with 10 microM PAM-labeled GLP-1 (28-36)amide peptide (FAM-FIAWLVKGRamide (SEQ ID NO:1)) and 50 nM MitoTracker Red CM-H2Ros for 5 minutes in no dye, no PBS, 5 mM Glucose DMEM medium. Cells were washed with the same medium and images were taken 15 minutes later using Nikon Diaphot 300 inverted microscope SPOT RT camera and SPOT 3.3.1 software (Diagnostic Instruments, Inc., MI).
Whether intracellular transport of FAM-GLP-1(28-36)amide is specific for […] was evaluated in hepatocytes isolated from Ob/Ob mice and treated for 18 hours with 1 microM Mitotracker Red CM-H2XRos and 1 microM of TAM labeled GLP-1 (28-36) peptide or irrelevant peptide controls: synapsin I-derived petide (FAM-LRRRISDANFamide (SEQ NO:13)), AnaSpec Cat #61756; IP3R-derived peptide (FAM-GRRESLTSFGamide (SEQ ID NO:14)), AnaSpec cat. #61731; or angiotensin I peptide (FAM-DRVYIHPFHL (SEQ ID NO:15)), AnaSpec cat. #61185, in 25 mM glucose maintenance medium. Irrelevant peptides were obtained from AnaSpec, Fremont, Calif. Celts were washed with 25 mM glucose Krebs-Ringer buffer. Images were taken using Nikon Diaphot 300 inverted microscope SPOT RT camera and SPOT 3.3.1 software (Diagnostic Instruments, Inc., MI).

[2] = system: isolated mouse hepatocytes
[3] = system: GLP-1 receptor
[4] = mouse, in vivo
[5] = mouse, in vivo; remark: listed apart in the source

FAM-DRVYIHPFHL ({FAM}-DRVYIHPFHL) [angiotensin I peptide, irrelevant peptide control, AnaSpec cat. #61185]
specificity of intracellular transport: distribution versus pattern of mitotracker [1]: do not distribute in hepatocytes with the pattern of distribution of mitotracker

FAM-FIAWLVKGRamide ({FAM}-FIAWLVKGR-NH2; UniProt P01275 119-127, looked up, fragment) [FAM-GLP-1(28-36)amide, GLP-1(28-36)amide labeled at the amino-terminus with 5-carboxyfluorescein (FAM)]
specificity of intracellular transport: distribution versus pattern of mitotracker [1]: appears to be specific for GLP-1(28-36)amide

FAM-GLP-1: fluorescence-labeled GLP-1
binding to the surface of isolated mouse hepatocytes [2]: no binding

FAM-GRRESLTSFGamide ({FAM}-GRRESLTSFG-NH2) [IP3R-derived peptide, irrelevant peptide control, AnaSpec cat. #61731]
specificity of intracellular transport: distribution versus pattern of mitotracker [1]: do not distribute in hepatocytes with the pattern of distribution of mitotracker

FAM-LRRRISDANFamide [synapsin I-derived petide]
specificity of intracellular transport: distribution versus pattern of mitotracker [1]: do not distribute in hepatocytes with the pattern of distribution of mitotracker

FAM-glucagon: FAM-labeled control hormone known to have receptors on hepatocytes
binding to the surface of isolated mouse hepatocytes [2]: readily binds to the surface of hepatocytes

FIAWLVKGR-NH2 [GLP-1(28-36)amide, FIAWLVKGRamide]
time to enter stressed hepatocytes [1]: ≤ 15 min | mechanism of transport into hepatocytes [3]: occurs by GLP-1 receptor-independent mechanisms | MCR of the peptide [4]: 40 to 50 mL/min | activities of the mice [5]: no observable change in the activities
